pIC50, pKd, pKi: −log10 of the molar value.
Experiments:
[1] = Inhibition of full length beta-catenin D145A mutant/N-terminal biotinylated human BCL9 HD2 (350 to 375 residues) protein-protein interaction in human SW480 cells incubated for 1 hr by Alphascreen assay; type: cell-based
[2] = tested on: MDA-MB-231; test: Antiproliferative activity against beta-catenin signalling overexpressing human MDA-MB-231 cells assessed as reduction in cell growth incubated for 72 hrs by MTS assay; type: functional, cell-based; details: MDA-MB-231, 72 h
[3] = Drug uptake in human MDA-MB-231 cells at 2 uM incubated at 37 degree C measured after 6 hrs by HPLC analysis; type: ADME, cell-based; details: mda-mb-231, 6 h
[4] = tested on: HCT-116; test: Antiproliferative activity against beta-catenin signalling overexpressing human HCT-116 cells assessed as reduction in cell growth incubated for 72 hrs by MTS assay; type: functional, cell-based; details: HCT-116, 72 h
[5] = Inhibition of Wnt/beta-catenin transactivation signalling in human HEK293 cells transfected with TOPFlash reporter gene incubated for 24 hrs by TOPFlash luciferase assay; type: cell-based; details: HEK293, 24 h
[6] = biological target: T1, Catenin beta-1/Cadherin-1 (Homo sapiens, UniProt P35222); test: Inhibition of full length beta-catenin (1 to 686 residues) (unknown origin) expressed in Escherichia coli BL21 (DE3)/N-terminal biotinylated human E-cadherin (824 to 877 residues) protein-protein interaction incubated for 2 hr by Alphascreen assay
T1 sequence (P35222 whole entry): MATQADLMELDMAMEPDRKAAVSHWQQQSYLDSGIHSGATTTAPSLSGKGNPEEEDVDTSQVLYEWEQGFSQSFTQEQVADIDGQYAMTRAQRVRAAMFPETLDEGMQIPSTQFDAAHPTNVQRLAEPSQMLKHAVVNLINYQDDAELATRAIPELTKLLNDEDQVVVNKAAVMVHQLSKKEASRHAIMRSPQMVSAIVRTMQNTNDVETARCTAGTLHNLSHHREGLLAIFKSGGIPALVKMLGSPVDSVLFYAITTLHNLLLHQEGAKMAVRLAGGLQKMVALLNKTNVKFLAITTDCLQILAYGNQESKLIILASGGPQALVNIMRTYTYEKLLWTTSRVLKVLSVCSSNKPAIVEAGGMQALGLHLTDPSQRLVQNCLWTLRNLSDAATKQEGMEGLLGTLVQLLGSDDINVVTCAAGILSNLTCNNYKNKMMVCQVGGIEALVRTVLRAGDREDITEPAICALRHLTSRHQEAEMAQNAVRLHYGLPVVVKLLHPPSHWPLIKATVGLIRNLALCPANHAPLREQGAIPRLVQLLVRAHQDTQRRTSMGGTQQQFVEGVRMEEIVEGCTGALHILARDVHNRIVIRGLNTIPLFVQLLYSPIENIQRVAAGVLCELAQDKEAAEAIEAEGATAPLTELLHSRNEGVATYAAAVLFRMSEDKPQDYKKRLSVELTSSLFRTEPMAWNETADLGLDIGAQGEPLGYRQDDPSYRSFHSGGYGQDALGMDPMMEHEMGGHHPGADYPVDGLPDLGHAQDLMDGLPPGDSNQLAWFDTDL
T1 sequence (P12830 whole entry): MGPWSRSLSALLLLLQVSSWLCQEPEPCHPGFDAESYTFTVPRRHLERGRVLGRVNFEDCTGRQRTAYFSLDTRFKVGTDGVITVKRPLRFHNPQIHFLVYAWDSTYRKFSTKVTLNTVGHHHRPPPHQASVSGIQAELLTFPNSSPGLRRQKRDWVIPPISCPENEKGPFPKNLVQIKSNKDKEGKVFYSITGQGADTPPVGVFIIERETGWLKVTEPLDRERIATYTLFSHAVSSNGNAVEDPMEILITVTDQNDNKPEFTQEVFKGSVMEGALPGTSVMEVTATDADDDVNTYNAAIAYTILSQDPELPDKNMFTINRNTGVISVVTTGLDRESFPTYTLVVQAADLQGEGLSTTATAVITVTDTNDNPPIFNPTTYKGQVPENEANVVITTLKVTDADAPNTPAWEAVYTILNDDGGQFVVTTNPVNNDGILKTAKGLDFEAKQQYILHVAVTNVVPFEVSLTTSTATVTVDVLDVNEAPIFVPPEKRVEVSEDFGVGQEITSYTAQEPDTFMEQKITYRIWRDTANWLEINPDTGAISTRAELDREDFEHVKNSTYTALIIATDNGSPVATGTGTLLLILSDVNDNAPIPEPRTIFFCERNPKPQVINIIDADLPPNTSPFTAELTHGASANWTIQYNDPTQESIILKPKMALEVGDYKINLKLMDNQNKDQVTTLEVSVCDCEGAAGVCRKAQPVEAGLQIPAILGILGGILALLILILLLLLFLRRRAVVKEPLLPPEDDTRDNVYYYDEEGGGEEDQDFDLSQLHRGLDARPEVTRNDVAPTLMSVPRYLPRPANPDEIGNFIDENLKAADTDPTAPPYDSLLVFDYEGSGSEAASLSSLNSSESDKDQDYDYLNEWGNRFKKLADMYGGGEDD

[7] = tested on: SW480; test: Antiproliferative activity against beta-catenin signalling overexpressing human SW480 cells assessed as reduction in cell growth incubated for 72 hrs by MTS assay; type: functional, cell-based; details: SW480, 72 h
[8] = biological target: T1, Catenin beta-1/Cadherin-1; test: Inhibition of full length beta-catenin (1 to 686 residues) (unknown origin) expressed in Escherichia coli BL21 (DE3)/N-terminal biotinylated human E-cadherin (824 to 877 residues) protein-protein interaction incubated for 2 hr by fluorescence anisotropy binding assay
[9] = biological target: T1, Catenin beta-1/Cadherin-1; test: Inhibition of full length beta-catenin (1 to 686 residues) (unknown origin) expressed in Escherichia coli BL21 (DE3)/N-terminal biotinylated human E-cadherin (824 to 877 residues) protein-protein interaction assessed as inhibition constant incubated for 2 hr by Alphascreen assay
[10] = Inhibition of full length beta-catenin E155A mutant/N-terminal biotinylated human BCL9 HD2 (350 to 375 residues) protein-protein interaction in human SW480 cells incubated for 1 hr by Alphascreen assay; type: cell-based

In the case of `CC(C)(C)C1CCC(c2cc(C(=O)N3CCC(Oc4cc(N5CCNCC5)ccc4C#N)CC3)ccc2O[C@H]2CCNC2)CC1.Cl.Cl` (mixture of isomers; cis), the pKi [1] was 5.16, the pIC50 [2] was 5.39 and the Drug uptake [3] was 88 µM. For the same compound, the pIC50 [4] was 5.01, the pIC50 [5] was 5.24 and the pKd [6] was 4.10. For the same compound, the pIC50 [7] was 5.21, the pKd [8] was 4.17 and the pKi [9] was 4.72. The pKi [10] was 5.44.

Reference: ChEMBL document CHEMBL5226326, “Discovery of 1-Benzoyl 4-Phenoxypiperidines as Small-Molecule Inhibitors of the β-Catenin/B-Cell Lymphoma 9 Protein-Protein Interaction” (J Med Chem, 2021)
